The results in this text go back to PMC7337102 (ACS infectious diseases, 2019).

Each structure is given as a SMILES string.

For orientation: kcat means the number of substrate molecules converted per active site and unit of time at saturation. The term Km denotes the concentration of substrate that gives half-maximal velocity.

For this test, the target named is Eis_wt (Mycobacterium tuberculosis, UniProt P9WFK7). Type of test: biochemical. The following applies: KAN as substrate.
Chain of Eis_wt (P9WFK7 whole entry): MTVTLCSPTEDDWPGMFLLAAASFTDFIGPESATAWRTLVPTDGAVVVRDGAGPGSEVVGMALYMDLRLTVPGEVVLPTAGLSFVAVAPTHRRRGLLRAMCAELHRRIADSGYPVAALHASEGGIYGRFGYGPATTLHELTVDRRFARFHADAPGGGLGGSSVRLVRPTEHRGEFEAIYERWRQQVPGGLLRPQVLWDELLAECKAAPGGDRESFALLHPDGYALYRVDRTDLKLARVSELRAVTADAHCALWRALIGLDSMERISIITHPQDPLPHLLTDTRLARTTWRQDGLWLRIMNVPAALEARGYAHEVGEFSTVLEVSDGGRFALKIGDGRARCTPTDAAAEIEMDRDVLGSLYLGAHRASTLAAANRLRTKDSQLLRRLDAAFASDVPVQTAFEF

As for `NC[C@H]1O[C@H](O[C@H]2[C@H](O)[C@@H](O[C@H]3O[C@H](CO)[C@@H](O)[C@H](N)[C@H]3O)[C@H](N)C[C@@H]2N)[C@H](O)[C@@H](O)[C@@H]1O` [KAN, kanamycin], the kcat came out at 0.238 ± 0.0317 s⁻¹. In addition, the Km (average for three sets of assays) turned out to be 551 ± 134 µM.
